Laboratory results taken from US20180127374A1, “BE[…] AS OPIOID RECEPTORS MODULATORS” (Purdue Pharma L.P., priority 2012, published 2018).
Like-named read-outs stand apart in the source and are kept apart here.

How the values were obtained:
μ-opioid receptor [1] = biological target: T1, μ-opioid receptor (Homo sapiens, UniProt P35372); experiment: μ-opioid receptor [35S]GTPγS functional assay; format: biochemical; parameters: purchased Perkin Elmer, Shelton, Conn; conditions: for Emax: relative to the effect elicited by DAMGO
Protocol: [^35S]GTPγS functional assays were conducted using freshly thawed μ-receptor membranes (Perkin Elmer, Shelton, Conn.). Assay reactions were prepared by sequentially adding the following reagents to binding buffer (100 mM NaCl, 10 mM MgCl2, 20 mM HEPES, pH 7.4) on ice (final concentrations indicated): membrane protein (0.026 mg/mL), saponin ([…]), GDP ([…]) and [^35S]GTPγS (0.20 nM; Perkin Elmer, Shelton, Conn.). The prepared membrane solution (190 μl/well) was transferred to 96-shallow well polypropylene plates containing 10 μI of 20× concentrated stock solutions of the agonist [D-Ala^e, N-methyl-Phe^4 Gly-ol^5]-enkephalin (DAMGO) prepared in dimethyl sulfoxide (DMSO). Plates were incubated for 30 min at about 25° C. with shaking. […] Data were analyzed using the sigmoidal dose-response curve fitting functions in GraphPad PRISM v. 3.0, or an in-house function for non-linear, sigmoidal dose-response curve-fitting.
μ GTP EC50 is the concentration of a compound providing 50% of the maximal response for the compound at a μ-opioid receptor.
μ GTP Emax (%) is the maximal effect elicited by a compound relative to the effect elicited by DAMGO, a standard μ agonist. Generally, the μ GTP Emax (%) value measures the efficacy of a compound to treat or prevent pain or other Conditions.
Target sequence in this assay (P35372 whole entry, species assumed): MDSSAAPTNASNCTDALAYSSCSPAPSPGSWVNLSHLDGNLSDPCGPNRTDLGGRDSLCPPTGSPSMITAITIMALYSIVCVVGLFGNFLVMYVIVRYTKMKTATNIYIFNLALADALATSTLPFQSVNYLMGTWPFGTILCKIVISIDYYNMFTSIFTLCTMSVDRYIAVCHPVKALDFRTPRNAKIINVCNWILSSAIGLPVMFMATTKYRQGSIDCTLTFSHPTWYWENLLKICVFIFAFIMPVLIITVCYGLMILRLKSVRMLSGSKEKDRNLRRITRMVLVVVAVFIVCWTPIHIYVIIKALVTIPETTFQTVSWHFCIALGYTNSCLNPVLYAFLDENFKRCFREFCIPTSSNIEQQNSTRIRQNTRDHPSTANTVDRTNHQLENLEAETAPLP

μ-opioid receptor [2] = biological target: T1, μ-opioid receptor; experiment: μ-opioid receptor radioligand dose-displacement binding assay
Protocol: Radioligand dose-displacement binding assays for μ-opioid receptors used 0.3 nM [^3H]-diprenorphine (Perkin Elmer, Shelton, Conn.), with […] membrane protein/well in a final volume of […] binding buffer (10 mM MgCl2, 1 mM EDTA, 5% DMSO, 50 mM HEPES, pH 7.4). Reactions were carried out in the absence or presence of increasing concentrations of unlabeled naloxone. All reactions were conducted in 96-deep well polypropylene plates for 2 hr at room temperature. […] The data were analyzed using the one-site competition curve fitting functions in GraphPad PRISM™ v. 3.0 or higher (San Diego, Calif.), or an in-house function for one-site competition curve-fitting.
Target sequence in this assay (P35372 whole entry): as the sequence (P35372 whole entry, species assumed) above

δ opioid receptor [3] = biological target: T2, δ opioid receptor (Homo sapiens, UniProt P41143); experiment: δ-opioid receptor radioligand dose-displacement binding assay
Protocol: δ-opioid Receptor Binding Assay Procedures were conducted as follows. Radioligand dose-displacement assays used 0.3 nM [^3H]-Naltrindole (Perkin Elmer, Shelton, Conn.; 33.0 Ci/mmole) with 5 μg membrane protein (Perkin Elmer, Shelton, Conn.) in a final volume of 500 μl binding buffer (5 mM MgCl2, 5% DMSO, 50 mM Trizma base, pH 7.4). Non-specific binding was determined in the presence of 25 μM unlabeled naloxone. All reactions were performed in 96-deep well polypropylene plates for 1 hr at a temperature of about 25° C. Binding reactions were terminated by rapid filtration onto 96-well Unifilter GF/C filter plates (Perkin Elmer, Shelton, Conn.) presoaked in 0.5% polyethylenimine (Sigma). Harvesting was performed using a 96-well tissue harvester (Perkin Elmer, Shelton, Conn.) followed by five filtration washes with 500 μl ice-cold binding buffer. Filter plates were subsequently dried at 50° C. for 1-2 hours. Fifty μl/well scintillation cocktail (Perkin Elmer, Shelton, Conn.) was added and plates were counted in a Packard Top-Count for 1 min/well.

[4] = biological target: T3, human opioid receptor-like receptor (ORL-1) (Homo sapiens, UniProt P41146); experiment: ORL-1 receptor radioligand binding assay
T3 construct: host or cells: HEK-293
Protocol: Membranes from recombinant HEK-293 cells expressing the human opioid receptor-like receptor (ORL-1) (Perkin Elmer, Shelton, Conn.) were prepared by lysing cells in ice-cold hypotonic buffer (2.5 mM MgCl2, 50 mM HEPES, pH 7.4) (10 ml/10 cm dish) followed by homogenization with a tissue grinder/Teflon pestle. Membranes were collected by centrifugation at 30,000×g for 15 min at 4° C. and pellets resuspended in hypotonic buffer to a final concentration of 1-3 mg/ml. Protein concentrations were determined using the BioRad protein assay reagent with bovine serum albumen as standard. Aliquots of the ORL-1 receptor membranes were stored at −80° C.
The data from screening and dose-displacement experiments were analyzed using Microsoft Excel and the curve fitting functions in GraphPad PRISM™, v. 3.0 or higher, respectively, or an in-house function for one-site competition curve-fitting.

κ opioid receptor [5] = biological target: T4, κ opioid receptor (Homo sapiens, UniProt P41145); experiment: κ-opioid receptor radioligand dose displacement binding assay; parameters: expressed in transfected cells; host or cells: HEK-293
Protocol: Membranes from recombinant HEK-293 cells expressing the human κ opioid receptor (κ) (cloned in house) were prepared by lysing cells in ice cold hypotonic buffer (2.5 mM MgCl2, 50 mM HEPES, pH 7.4) (10 mL/10 cm dish) followed by homogenization with a tissue grinder/Teflon pestle. Membranes were collected by centrifugation at 30,000×g for 15 min at 4° C. and pellets were resuspended in hypotonic buffer to a final concentration of 1-3 mg/mL. Protein concentrations were determined using the BioRad protein assay reagent with bovine serum albumen as standard. Aliquots of κ receptor membranes were stored at […]

κ opioid receptor [6] = biological target: T4, κ opioid receptor; experiment: κ-opioid receptor [35S]GTPγS functional assay; format: biochemical; parameters: expressed in transfected cells; conditions: for Emax: relative to the effect elicited by U69,593
Protocol: (§1) Functional [^35S]GTPγS binding assays were conducted as follows. κ opioid receptor membrane solution was prepared by sequentially adding final concentrations of 0.026 μg/μl κ membrane protein (in-house), 10 μg/mL saponin, 3 μM GDP and 0.20 nM [^35S]GTPγS to binding buffer (100 mM NaCl, 10 mM MgCl2, 20 mM HEPES, pH 7.4) on ice. The prepared membrane solution (190 μl/well) was transferred to 96-shallow well polypropylene plates containing 10 μl of 20× concentrated stock solutions of agonist prepared in DMSO. Plates were incubated for 30 min at a temperature of about 25° C. with shaking.
κ GTP EC50 is the concentration of a compound providing 50% of the maximal response for the compound at a κ receptor.
κ GTP Emax (%) is the maximal effect elicited by a compound relative to the effect elicited by U69,593.

δ opioid receptor [7] = biological target: T2, δ opioid receptor; experiment: δ-opioid receptor [35S]GTPγS functional assay; format: biochemical; parameters: purchased Perkin Elmer, Shelton, Conn; conditions: for Emax: relative to the effect elicited by met-enkephalin; for EC50: δ membrane protein
Protocol: as §1, with “δ” for “κ”, “(Perkin Elmer, Shelton, Conn.),” for “(in-house),”, “[…]” for “10 μl”
δ GTP EC50 is the concentration of a compound providing 50% of the maximal response for the compound at a δ receptor.
δ GTP Emax (%) is the maximal effect elicited by a compound relative to the effect elicited by met-enkephalin. […] In another embodiment, the Compounds of the Invention will have a δ GTP Emax (%) of about 100% or greater.

[8] = μ-receptor membranes, read-out: GTPγS μ EC50
[9] = [3H]-diprenorphine displacement, read-out: Ki (nM) Opioid Receptor μ
[10] = [3H]-U69,593 displacement, HEK-293 membranes, read-out: Ki (nM) Opioid Receptor κ
[11] = κ membrane protein (in-house), read-out: GTPγS κ EC50
[12] = [3H]-nociceptin displacement, HEK-293 membranes, read-out: Ki (nM) ORL-1

T4 sequence (P41145 whole entry): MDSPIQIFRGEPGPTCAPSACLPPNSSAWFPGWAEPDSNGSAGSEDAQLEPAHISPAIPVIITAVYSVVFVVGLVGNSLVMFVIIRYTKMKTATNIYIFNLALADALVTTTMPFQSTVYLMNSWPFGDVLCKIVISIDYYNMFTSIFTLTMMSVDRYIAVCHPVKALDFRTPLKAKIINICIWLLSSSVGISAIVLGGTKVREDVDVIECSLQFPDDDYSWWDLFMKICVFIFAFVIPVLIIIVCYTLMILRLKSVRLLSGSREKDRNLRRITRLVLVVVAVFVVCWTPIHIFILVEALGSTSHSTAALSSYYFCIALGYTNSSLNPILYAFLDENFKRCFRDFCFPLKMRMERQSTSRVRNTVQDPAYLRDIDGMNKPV
T3 sequence (P41146 whole entry): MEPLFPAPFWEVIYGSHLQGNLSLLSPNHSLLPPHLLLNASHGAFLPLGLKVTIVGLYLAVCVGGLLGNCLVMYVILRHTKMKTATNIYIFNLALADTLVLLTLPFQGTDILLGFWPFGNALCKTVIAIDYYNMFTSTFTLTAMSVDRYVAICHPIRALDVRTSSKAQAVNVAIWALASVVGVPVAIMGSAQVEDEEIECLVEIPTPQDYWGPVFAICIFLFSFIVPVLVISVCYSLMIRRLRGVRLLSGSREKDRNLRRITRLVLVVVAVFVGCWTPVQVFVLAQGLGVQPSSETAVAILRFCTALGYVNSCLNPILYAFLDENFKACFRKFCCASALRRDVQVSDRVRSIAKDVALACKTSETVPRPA
T2 sequence (P41143 whole entry): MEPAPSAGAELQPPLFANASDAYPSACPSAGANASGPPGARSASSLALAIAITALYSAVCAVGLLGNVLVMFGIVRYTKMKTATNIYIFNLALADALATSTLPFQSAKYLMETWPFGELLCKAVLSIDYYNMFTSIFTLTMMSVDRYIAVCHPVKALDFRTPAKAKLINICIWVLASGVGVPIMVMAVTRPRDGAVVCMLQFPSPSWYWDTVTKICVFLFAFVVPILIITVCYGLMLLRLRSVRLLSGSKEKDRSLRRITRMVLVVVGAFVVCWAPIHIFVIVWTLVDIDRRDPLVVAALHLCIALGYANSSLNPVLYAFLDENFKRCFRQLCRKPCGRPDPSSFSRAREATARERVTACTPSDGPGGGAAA

With `COc1ccc2c(c1)[C@@]1(CCC[C@H](O)CO)CCN(CC3CC3)C(C2)[C@@H]1C` [Compound 11, (2S)-5-((6S,11R)-3-(cyclopropylmethyl)-8-methoxy-11-methyl-1,2,3,4,5,6-hexahydro-2,6-methanobenzo[d]azocin-6-yl)pentane-1,2-diol] the EC50 (μ-opioid receptor [1]) was greater than 20000 nM, the Ki (μ-opioid receptor [2]) was 235 ± 17.3 nM and the Ki (δ opioid receptor [3]) was 4980 ± 456 nM. The Ki [4] was 13100 ± 1060 nM, the Ki (κ opioid receptor [5]) was 3.23 ± 0.5 nM and the EC50 (κ opioid receptor [6]) was 210 nM. The Emax (κ opioid receptor [6]) was 81%.
`C[C@H]1[C@H]2Cc3ccc(O)cc3[C@]1(CCOc1cncc(C(=O)O)c1)CCN2CC1CC1` [Compound 16, 5-(2-((2R,6S,11R)-3-(cyclopropylmethyl)-8-hydroxy-11-methyl-1,2,3,4,5,6-hexahydro-2,6-methanobenzo[d]azocin-6-yl)ethoxy)nicotinic acid] was tested, and the Emax (μ-opioid receptor [1]) was 26%, the EC50 (μ-opioid receptor [1]; [8]) was 8.95 nM and the Ki (μ-opioid receptor [2]; [9]) was 6.85 ± 1.48 nM. For the same molecule, the Ki (δ opioid receptor [3]) was 62.5 ± 11 nM, the Ki (κ opioid receptor [5]; [10]) was 12.6 ± 2.11 nM and the Emax (δ opioid receptor [7]) was 37.8%. The EC50 (δ opioid receptor [7]) was 2.48 nM, the Emax (κ opioid receptor [6]) was 60.7% and the EC50 (κ opioid receptor [6]; [11]) was 67.9 nM.
`CC(C)CN1CC[C@@]2(CCCC(N)=O)c3cc(O)ccc3C[C@@H]1[C@@H]2C` [Compound 18, 4-((2R,6R,11R)-8-hydroxy-3-isobutyl-11-methyl-1,2,3,4,5,6-hexahydro-2,6-methanobenzo[d]azocin-6-yl)butanamide] was tested, and the Emax (μ-opioid receptor [1]) was 25.3%, the EC50 (μ-opioid receptor [1]; [8]) was 9.12 nM and the Ki (μ-opioid receptor [2]; [9]) was 19.8 ± 0.68 nM. The Ki (δ opioid receptor [3]) was 155 ± 44.7 nM, the Ki (κ opioid receptor [5]; [10]) was 0.51 ± 0.05 nM and the Emax (δ opioid receptor [7]) was 74.3%. For the same molecule, the EC50 (δ opioid receptor [7]) was 81 nM, the Emax (κ opioid receptor [6]) was 43% and the EC50 (κ opioid receptor [6]; [11]) was 7.14 nM.
In the case of `COC(=O)[C@H](C)NC(=O)CCC[C@]12CCN(CC3CC3)[C@H](Cc3ccc(O)cc31)[C@@H]2C` [Compound 21, (S)-methyl 2-(4-((2R,6R,11R)-3-(cyclopropylmethyl)-8-hydroxy-11-methyl-1,2,3,4,5,6-hexahydro-2,6-methanobenzo[d]azocin-6-yl)butanamido)propanoate], the Emax (μ-opioid receptor [1]) is reported as 36.7%, the EC50 (μ-opioid receptor [1]; [8]) is reported as 5.45 nM and the Ki (μ-opioid receptor [2]; [9]) is reported as 5.05 ± 1.34 nM. For the same molecule, the Ki (δ opioid receptor [3]) was 8.81 ± 0.71 nM, the Ki [4, 12] was 2430 ± 718 nM and the Ki (κ opioid receptor [5]; [10]) was 0.13 ± 0.02 nM. For the same molecule, the Emax (κ opioid receptor [6]) was 67.5% and the EC50 (κ opioid receptor [6]; [11]) was 9.72 nM.
For `COC(=O)CCC[C@]12CCN(CC3CC3)[C@H](Cc3ccc(O)cc31)[C@@H]2C` [Compound 23, methyl 4-((2R,6R,11R)-3-(cyclopropylmethyl)-8-hydroxy-11-methyl-1,2,3,4,5,6-hexahydro-2,6-methanobenzo[d]azocin-6-yl)butanoate], the Emax (μ-opioid receptor [1]) was 18%, the EC50 (μ-opioid receptor [1]; [8]) was 2.33 nM and the Ki (μ-opioid receptor [2]; [9]) was 1.16 ± 0.36 nM. It also gave a Ki (δ opioid receptor [3]) of 32.6 ± 2.97 nM, a Ki [4, 12] of 2240 ± 285 nM and a Ki (κ opioid receptor [5]; [10]) of 0.07 ± 0.01 nM. It also gave an Emax (κ opioid receptor [6]) of 57% and an EC50 (κ opioid receptor [6]; [11]) of 5.19 nM.
With `COc1ccc2c(c1)[C@@]1(CCCc3ccco3)CCN(CC3CC3)C(C2)C1C` (stereo in doubt) [Compound 15, (2R,6S,11S)-3-(cyclopropylmethyl)-6-(3-(furan-2-yl)propyl)-8-methoxy-11-methyl-1,2,3,4,5,6-hexahydro-2,6-methanobenzo[d]azocine] the Emax (μ-opioid receptor [1]) was 34.6%, the EC50 (μ-opioid receptor [1]; [8]) was 303 nM and the Ki (μ-opioid receptor [2]; [9]) was 389 ± 90.2 nM. The Ki (δ opioid receptor [3]) was 736 ± 196 nM, the Ki (κ opioid receptor [5]; [10]) was 2.11 ± 0.22 nM and the Emax (δ opioid receptor [7]) was 67%. The EC50 (δ opioid receptor [7]) was 143 nM, the Emax (κ opioid receptor [6]) was 82.3% and the EC50 (κ opioid receptor [6]; [11]) was 104 nM.
